Laboratory results published in patent US20250205259A1, “CLASS OF 7-((FIVE-MEMBERED HETEROCYCLIC)METHYL)-8-CARBOXYLIC ACID-BENZO CYCLIC BORATE DERIVATIVES AND USES THEREOF” (priority 2022, published 2025).
Where two headings read alike, the source gives them in different places.

Tests used:
[1] = molecular target: VIM-1 (Pseudomonas aeruginosa, UniProt A0A0F7KYQ8); experiment: Inhibitory activity on MBL, fluorescent substrate FC-5; format: biochemical
[2] = molecular target: KPC-2 (Klebsiella pneumoniae, UniProt Q9F663); experiment: Inhibitory activity on SBL, fluorescent substrate FC-5; format: biochemical; settings: for IC50: read-out: Inhibitory activity on SBL KPC-2 (IC50 class)
Sequence of KPC-2 (Q9F663 25-293 limits assumed): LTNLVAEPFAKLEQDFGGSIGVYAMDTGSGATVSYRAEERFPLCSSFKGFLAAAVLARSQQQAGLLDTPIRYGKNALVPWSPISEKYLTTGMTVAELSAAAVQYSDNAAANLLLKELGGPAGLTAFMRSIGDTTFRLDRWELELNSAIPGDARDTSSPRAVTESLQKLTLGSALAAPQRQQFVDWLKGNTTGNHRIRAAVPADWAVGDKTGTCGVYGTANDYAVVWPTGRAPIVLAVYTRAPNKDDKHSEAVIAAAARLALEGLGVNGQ

[3] = molecular target: CTX-M-14 (Escherichia coli, UniProt Q9L5C7); experiment: as above; format: biochemical; settings: for IC50: read-out: Inhibitory activity on SBL CTX-M-14 (IC50 class)
Sequence of CTX-M-14 (Q9L5C7 entry or part of it): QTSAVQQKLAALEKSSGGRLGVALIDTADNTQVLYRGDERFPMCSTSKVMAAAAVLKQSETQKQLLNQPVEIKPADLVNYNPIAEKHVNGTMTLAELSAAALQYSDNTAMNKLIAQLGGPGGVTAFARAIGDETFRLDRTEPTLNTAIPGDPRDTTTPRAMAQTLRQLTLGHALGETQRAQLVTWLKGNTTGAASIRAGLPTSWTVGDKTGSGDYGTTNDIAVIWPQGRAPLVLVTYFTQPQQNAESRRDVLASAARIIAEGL

[4] = molecular target: NDM-1 (Klebsiella pneumoniae, UniProt C7C422); experiment: Inhibitory activity on MBL, fluorescent substrate FC-5; format: biochemical
Sequence of NDM-1 (C7C422 29-270 limits assumed): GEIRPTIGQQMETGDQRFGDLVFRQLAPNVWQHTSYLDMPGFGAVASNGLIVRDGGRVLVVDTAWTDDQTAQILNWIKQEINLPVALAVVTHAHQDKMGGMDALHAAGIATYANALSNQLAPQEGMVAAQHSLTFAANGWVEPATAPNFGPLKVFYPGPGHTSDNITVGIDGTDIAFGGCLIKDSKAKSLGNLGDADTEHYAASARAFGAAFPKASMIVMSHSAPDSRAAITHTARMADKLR

[5] = molecular target: IMP-1 (Serratia marcescens, UniProt P52699); experiment: as above; format: biochemical
Sequence of IMP-1 (P52699 19-246 limits assumed): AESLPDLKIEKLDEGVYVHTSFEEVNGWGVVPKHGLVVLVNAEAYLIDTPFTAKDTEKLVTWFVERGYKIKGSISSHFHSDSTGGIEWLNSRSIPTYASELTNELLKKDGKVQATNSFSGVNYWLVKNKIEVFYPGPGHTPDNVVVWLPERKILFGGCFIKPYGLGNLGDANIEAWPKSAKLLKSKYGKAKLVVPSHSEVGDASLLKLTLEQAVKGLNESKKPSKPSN

[6] = molecular target: TEM-1 (Escherichia coli, UniProt P62593); experiment: Inhibitory activity on SBL, fluorescent substrate FC-5; format: biochemical; settings: for IC50: read-out: Inhibitory activity on SBL TEM-1 (IC50 class)
Sequence of TEM-1 (P62593 24-286 limits assumed): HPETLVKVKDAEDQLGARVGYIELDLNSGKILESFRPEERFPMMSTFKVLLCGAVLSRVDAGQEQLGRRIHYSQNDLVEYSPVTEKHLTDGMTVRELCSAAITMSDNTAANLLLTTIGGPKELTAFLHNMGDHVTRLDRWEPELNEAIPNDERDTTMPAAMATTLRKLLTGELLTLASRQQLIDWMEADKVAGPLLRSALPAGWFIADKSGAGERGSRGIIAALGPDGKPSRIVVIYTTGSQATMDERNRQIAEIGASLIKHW

[7] = molecular target: NDM-5 (Klebsiella pneumoniae, UniProt C7C422, M154L/V88L); experiment: Inhibitory activity on MBL, fluorescent substrate FC-5; format: biochemical
Sequence of NDM-5 (C7C422 29-270 V88L/M154L): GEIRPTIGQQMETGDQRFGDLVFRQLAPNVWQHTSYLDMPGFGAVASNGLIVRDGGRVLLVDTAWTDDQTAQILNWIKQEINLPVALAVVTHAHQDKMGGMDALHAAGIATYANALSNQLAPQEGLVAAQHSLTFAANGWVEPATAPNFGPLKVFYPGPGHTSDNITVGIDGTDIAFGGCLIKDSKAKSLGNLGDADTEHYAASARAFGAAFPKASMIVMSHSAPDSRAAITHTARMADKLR

[8] = molecular target: VIM-2 (Escherichia coli, UniProt Q5U7L7); experiment: as above; format: biochemical; settings: read-out: Inhibitory activity on MBL VIM-2 (IC50 class)
[9] = molecular target: OXA-48 (Klebsiella pneumoniae, UniProt Q6XEC0); experiment: Inhibitory activity on SBL, fluorescent substrate FC-5; format: biochemical; settings: for IC50: read-out: Inhibitory activity on SBL OXA-48 (IC50 class)
Sequence of OXA-48 (Q6XEC0 23-265 limits assumed): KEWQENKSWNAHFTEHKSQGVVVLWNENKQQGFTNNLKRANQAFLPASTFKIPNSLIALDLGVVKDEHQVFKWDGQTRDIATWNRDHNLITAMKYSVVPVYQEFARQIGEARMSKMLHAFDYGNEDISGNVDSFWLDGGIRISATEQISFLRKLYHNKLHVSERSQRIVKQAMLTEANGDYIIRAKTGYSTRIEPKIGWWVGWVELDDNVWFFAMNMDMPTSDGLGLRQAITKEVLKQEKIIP

[10] = molecular target: AmpC (UniProt P24735); experiment: as above; settings: read-out: Inhibitory activity on SBL AmpC (IC50 class)
[11] = molecular target: T1, SHV-12 (UniProt P0AD64, L31Q/G234S/E235K, species not given); experiment: as above; format: biochemical; settings: for IC50: read-out: Inhibitory activity on SBL SHV-12 (IC50 class); for inhibitory activity on SHV-12 compared to control drugs: comparison in words
T1 sequence (P0AD64 1-286 L31Q/G234S/E235K): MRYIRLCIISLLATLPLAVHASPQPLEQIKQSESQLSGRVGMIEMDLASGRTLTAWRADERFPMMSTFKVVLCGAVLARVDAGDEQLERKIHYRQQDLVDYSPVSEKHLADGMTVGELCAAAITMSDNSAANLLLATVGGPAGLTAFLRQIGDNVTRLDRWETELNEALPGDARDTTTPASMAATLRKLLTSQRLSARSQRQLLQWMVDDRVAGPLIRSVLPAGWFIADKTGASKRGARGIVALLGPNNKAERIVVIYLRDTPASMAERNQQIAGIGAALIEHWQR

[12] = VIM-1 and/or VIM-2, read-out: inhibitory activity at a nanomolar-level on VIM-1 and/or VIM-2
[13] = read-out: Inhibitory activity on MBL VIM-1 (IC50 class)
[14] = read-out: Inhibitory activity on MBL NDM-1 (IC50 class)
[15] = read-out: Inhibitory activity on MBL IMP-1 (IC50 class)
[16] = read-out: Inhibitory activity on MBL NDM-5 (IC50 class)
[17] = read-out: inhibitory activity at a nanomolar-level on NDM-1
[18] = read-out: inhibitory activity at a nanomolar-level on NDM-5

NCCCc1cn(Cc2ccc3c(c2C(=O)O)OB(O)CC3)nn1 [Compound 9]
IC50 [1, 12]: < 1000 nM
IC50 [1, 13]: 1000 to 100000 nM
IC50 [2]: < 10 nM
IC50 [3]: 10 to 1000 nM
IC50 [4, 14]: 1000 to 100000 nM
IC50 [5, 15]: 1000 to 100000 nM
IC50 [6]: 10 to 1000 nM
IC50 [7, 16]: 10 to 1000 nM
IC50 [8]: 10 to 1000 nM
IC50 [9]: < 10 nM
IC50 [10]: > 100000 nM

N=C(N)NCCc1cn(Cc2ccc3c(c2C(=O)O)OB(O)CC3)nn1 [Compound 10]
IC50 [1, 12]: < 1000 nM
IC50 [1, 13]: 1000 to 100000 nM
IC50 [2]: < 10 nM
IC50 [3]: 10 to 1000 nM
IC50 [4, 14]: 10 to 1000 nM
IC50 [4, 17]: < 1000 nM
IC50 [5, 15]: 1000 to 100000 nM
IC50 [6]: 10 to 1000 nM
IC50 [7, 16]: 10 to 1000 nM
IC50 [7, 18]: < 1000 nM
IC50 [8]: 10 to 1000 nM
IC50 [9]: < 10 nM
IC50 [10]: > 100000 nM

NC1CCC(c2cn(Cc3ccc4c(c3C(=O)O)OB(O)CC4)nn2)CC1 (stereo not shown) [Compound 11]
IC50 [1, 12]: < 1000 nM
IC50 [1, 13]: 1000 to 100000 nM
IC50 [2]: < 10 nM
IC50 [3]: 10 to 1000 nM
IC50 [4, 14]: 10 to 1000 nM
IC50 [4, 17]: < 1000 nM
IC50 [5, 15]: 1000 to 100000 nM
IC50 [6]: 10 to 1000 nM
IC50 [7, 16]: 10 to 1000 nM
IC50 [7, 18]: < 1000 nM
IC50 [8]: 10 to 1000 nM
IC50 [9]: < 10 nM
IC50 [10]: > 100000 nM

N=C(N)NCCc1cnn(Cc2ccc3c(c2C(=O)O)OB(O)CC3)c1 [Compound 50]
IC50 [1, 13]: 1000 to 100000 nM
IC50 [2]: < 10 nM
IC50 [3]: 10 to 1000 nM
IC50 [4, 14]: 1000 to 100000 nM
IC50 [5, 15]: 1000 to 100000 nM
IC50 [6]: 10 to 1000 nM
IC50 [7, 16]: 10 to 1000 nM
IC50 [8]: 1000 to 100000 nM
IC50 [9]: 10 to 1000 nM
IC50 [11]: 10 to 1000 nM

NS(=O)(=O)NCCc1cn(Cc2ccc3c(c2C(=O)O)OB(O)CC3)nn1 [Compound 51]
IC50 [1, 13]: 1000 to 100000 nM
IC50 [2]: < 10 nM
IC50 [3]: 10 to 1000 nM
IC50 [4, 14]: 10 to 1000 nM
IC50 [4, 17]: < 1000 nM
IC50 [5, 15]: 1000 to 100000 nM
IC50 [6]: 10 to 1000 nM
IC50 [7, 16]: 10 to 1000 nM
IC50 [7, 18]: < 1000 nM
IC50 [8]: 10 to 1000 nM
IC50 [9]: < 10 nM
IC50 [11]: 10 to 1000 nM

O=C(O)c1c(Cn2cc3c(n2)CNC3)ccc2c1OB(O)[C@@H]1C[C@H]21 [Compound 53]
IC50 [1, 13]: 1000 to 100000 nM
IC50 [2]: < 10 nM
IC50 [3]: 10 to 1000 nM
IC50 [4, 14]: 10 to 1000 nM
IC50 [4, 17]: < 1000 nM
IC50 [5, 15]: 1000 to 100000 nM
IC50 [6]: 10 to 1000 nM
IC50 [7, 16]: 10 to 1000 nM
IC50 [7, 18]: < 1000 nM
IC50 [8]: 10 to 1000 nM
IC50 [9]: < 10 nM
IC50 [11]: 10 to 1000 nM

O=C(O)c1c(Cn2cc3c(n2)CNC3)ccc2c1OB(O)[C@H]1C[C@@H]21 [Compound 54]
IC50 [1, 13]: 1000 to 100000 nM
IC50 [2]: 10 to 1000 nM
IC50 [3]: 10 to 1000 nM
IC50 [4, 14]: 10 to 1000 nM
IC50 [4, 17]: < 1000 nM
IC50 [5, 15]: 1000 to 100000 nM
IC50 [6]: 1000 to 100000 nM
IC50 [7, 16]: 10 to 1000 nM
IC50 [7, 18]: < 1000 nM
IC50 [8]: 10 to 1000 nM
IC50 [9]: 10 to 1000 nM
IC50 [11]: 10 to 1000 nM

NS(=O)(=O)N1Cc2cn(Cc3ccc4c(c3C(=O)O)OB(O)CC4)nc2C1 [Compound 57]
IC50 [1, 12]: < 1000 nM
IC50 [1, 13]: 10 to 1000 nM
IC50 [2]: < 10 nM
IC50 [3]: < 10 nM
IC50 [4, 14]: 10 to 1000 nM
IC50 [4, 17]: < 1000 nM
IC50 [5, 15]: 1000 to 100000 nM
IC50 [6]: < 10 nM
IC50 [7, 16]: 10 to 1000 nM
IC50 [7, 18]: < 1000 nM
IC50 [8]: 10 to 1000 nM
IC50 [9]: < 10 nM
IC50 [11]: 10 to 1000 nM

NCCc1ccc(-c2cn(Cc3ccc4c(c3C(=O)O)OB(O)CC4)nn2)cc1 [Compound 65]
IC50 [2]: < 10 nM
IC50 [10]: 1000 to 100000 nM

NCCN1Cc2cn(Cc3ccc4c(c3C(=O)O)OB(O)CC4)nc2C1 [Compound 70]
IC50 [1, 12]: < 1000 nM
IC50 [1, 13]: 10 to 1000 nM
inhibitory activity on KPC-2 compared to avibactam ([2]; comparison in words): better or comparable
IC50 [2]: < 10 nM
inhibitory activity on CTX-M-14 compared to avibactam ([3]; comparison in words): better or comparable
IC50 [3]: 10 to 1000 nM
IC50 [4, 14]: 10 to 1000 nM
IC50 [4, 17]: < 1000 nM
IC50 ([5]; IMP-1 and/or IMP-4, read-out: inhibitory activity at a nanomolar-level on IMP-1 and/or IMP-4): < 1000 nM
IC50 [5, 15]: 10 to 1000 nM
inhibitory activity on TEM-1 compared to avibactam ([6]; comparison in words): better or comparable
IC50 [6]: < 10 nM
IC50 [7, 16]: 10 to 1000 nM
IC50 [7, 18]: < 1000 nM
IC50 [8]: 10 to 1000 nM
inhibitory activity on OXA-48 compared to avibactam ([9]; comparison in words): better or comparable
IC50 [9]: 10 to 1000 nM
inhibitory activity on SHV-12 compared to control drugs [11]: comparable to avibactam and tazobactam and superior to taniborbactam
IC50 [11]: < 10 nM

N#Cc1ccn(Cc2ccc3c(c2C(=O)O)OB(O)CC3)c1 [Compound 71]
IC50 [1, 12]: < 1000 nM
IC50 [1, 13]: 10 to 1000 nM
IC50 [2]: < 10 nM
IC50 [3]: 10 to 1000 nM
IC50 [4, 14]: 10 to 1000 nM
IC50 [4, 17]: < 1000 nM
IC50 [5, 15]: 10 to 1000 nM
IC50 [6]: < 10 nM
IC50 [7, 16]: 10 to 1000 nM
IC50 [7, 18]: < 1000 nM
IC50 [8]: 10 to 1000 nM
IC50 [9]: 10 to 1000 nM
inhibitory activity on SHV-12 compared to control drugs [11]: comparable to avibactam and tazobactam and superior to taniborbactam
IC50 [11]: < 10 nM

NC1CN(C(=O)c2cnn(Cc3ccc4c(c3C(=O)O)OB(O)CC4)c2)C1 [Compound 72]
IC50 [1, 12]: < 1000 nM
IC50 [1, 13]: 10 to 1000 nM
IC50 [2]: < 10 nM
IC50 [3]: 10 to 1000 nM
IC50 [4, 14]: 10 to 1000 nM
IC50 [4, 17]: < 1000 nM
IC50 [5, 15]: 10 to 1000 nM
IC50 [6]: < 10 nM
IC50 [7, 16]: 10 to 1000 nM
IC50 [7, 18]: < 1000 nM
IC50 [8]: 10 to 1000 nM
IC50 [9]: 10 to 1000 nM
inhibitory activity on SHV-12 compared to control drugs [11]: comparable to avibactam and tazobactam and superior to taniborbactam
IC50 [11]: < 10 nM
